Assay results: patent US7279497B2, “Benzopyran derivatives substituted with secondary amines including imidazole, their preparation and pharmaceutical compositions containing them” (Korea Research Institute of Chemical Technology, priority 2002, dated 2007)

Assays:
SPF SD rats = settings: rat, in vivo, po;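 further: Six-week-old animals, two per group, followed across an observation period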
[1] = tested on: HUVECs (Human umbilical vein endothelial cells); assay: Inhibitory effects on HUVEC tube formation; assay type: cell-based;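 further: from minus no inhibition up to plus-plus-plus complete inhibition versus vehicle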
Procedure: The Inhibitory effects of the compounds of the formula 1 on angiogenesis were meassured by the vascular tube formation assay of HUVECs (Human umbilical vein endothelial cells), which is one of the major angiogenic steps.
HUVECs were isolated from human umbilical vein, and cultured. HUVECs within passage 5 from confluent cultures were detached, and plated onto a layer of a bFGF (basic fibroblast growth factor)-reduced and polymerized Matrigel. Matrigel cultures were incubated with or without the compounds of formula 1, and the changes of cell morphology were captured through a phase contrast microscope and photographed.

SMILES	clinical symptoms, body weight and mortality (SPF SD rats)	further results
COC(OC)[C@]1(C)Oc2ccc(N)cc2[C@H](N(Cc2ncc[nH]2)c2ccc(Br)cc2)[C@H]1O [Example 29, (2R,3R,4S)-6-amino-3,4-dihydro-2-dimethoxymethyl-3-hydroxy-2-methyl-4-[N-(4-bromophenyl)-N-(1H-imidazol-2-ylmethyl)amino]-2H-1-benzopyran]	no significant changes	Tube formation ([1]; 50 μM): +
COC(OC)[C@@]1(C)Oc2ccc(C#N)cc2[C@@H](N(Cc2ncc[nH]2)c2ccc(Cl)cc2)[C@@H]1O [Example 22, (2S,3S,4R)-6-cyano-3,4-dihydro-2-dimethoxymethyl-3-hydroxy-2-methyl-4-[N-(4-chlorophenyl)-N-(1H-imidazol-2-ylmethyl)amino]-2H-1-benzopyran]	no significant changes	Tube formation ([1]; 10 μM): +; Tube formation ([1]; 100 μM): ++
COC(OC)[C@]1(C)Oc2ccc([N+](=O)[O-])cc2[C@@H](N(Cc2ncc[nH]2)c2ccc(Cl)cc2)[C@@H]1O [Example 4, (2R,3S,4R)-3,4-dihydro-2-dimethoxymethyl-3-hydroxy-2-methyl-6-nitro-4-[N-(4-chlorophenyl)-N-(1H-imidazol-2-ylmethyl)amino]-2H-1-benzopyran]	no significant changes	Tube formation ([1]; 50 μM): +
COC(OC)[C@]1(C)Oc2ccc([N+](=O)[O-])cc2[C@H](N(Cc2ncc[nH]2)c2cccc(Cl)c2)[C@H]1O [Example 19, (2R,3R,4S)-3,4-dihydro-2-dimethoxymethyl-3-hydroxy-2-methyl-6-nitro-4-[N-(3-chlorophenyl)-N-(1H-imidazol-2-ylmethyl)amino]-2H-1-benzopyran]	no significant changes	
COC(OC)[C@@]1(C)Oc2ccc([N+](=O)[O-])cc2[C@@H](N(Cc2ncc[nH]2)c2cccc(C)c2C)[C@@H]1O [Example 11, (2S,3S,4R)-3,4-dihydro-2-dimethoxymethyl-3-hydroxy-2-methyl-6-nitro-4-[N-(2,3-dimethylphenyl)-N-(1H-imidazol-2-ylmethyl)amino]-2H-1-benzopyran]	no significant changes	
COC(OC)[C@@]1(C)Oc2ccc([N+](=O)[O-])cc2[C@@H](N(Cc2ncc[nH]2)c2ccc(OC(F)(F)F)cc2)[C@@H]1O [Example 7, (2S,3S,4R)-3,4-dihydro-2-dimethoxymethyl-3-hydroxy-2-methyl-6-nitro-4-[N-(4-trifluoromethoxyphenyl)-N-(1H-imidazol-2-ylmethyl)amino]-2H-1-benzopyran]	no significant changes	Tube formation ([1]; 50 μM): +
COC(OC)[C@@]1(C)Oc2ccc([N+](=O)[O-])cc2[C@@H](N(Cc2ncc[nH]2)c2ccc(C)cc2C)[C@@H]1O [Example 9, (2S,3S,4R)-3,4-dihydro-2-dimethoxymethyl-3-hydroxy-2-methyl-6-nitro-4-[N-(2,4-dimethylphenyl)-N-(1H-imidazol-2-ylmethyl)amino]-2H-1-benzopyran]	no significant changes	Tube formation ([1]; 50 μM): +
COc1ccc(N(Cc2ncc[nH]2)[C@H]2c3cc(N)ccc3O[C@@](C)(C(OC)OC)[C@@H]2O)cc1 [Example 28, (2R,3R,4S)-6-amino-3,4-dihydro-2-dimethoxymethyl-3-hydroxy-2-methyl-4-[N-(4-methoxyphenyl)-N-(1H-imidazol-2-ylmethyl)amino]-2H-1-benzopyran]	no significant changes	Tube formation ([1]; 50 μM): +
COC(OC)[C@]1(C)Oc2ccc([N+](=O)[O-])cc2[C@H](N(Cc2ncc[nH]2)c2ccc(Br)cc2)[C@H]1O [Example 13, (2R,3R,4S)-3,4-dihydro-2-dimethoxymethyl-3-hydroxy-2-methyl-6-nitro-4-[N-(4-bromophenyl)-N-(1H-imidazol-2-ylmethyl)amino]-2H-1-benzopyran]	no significant changes	Tube formation ([1]; 50 μM): +
COC(OC)[C@@]1(C)Oc2ccc(N)cc2[C@@H](N(Cc2ncc[nH]2)c2ccccc2C(C)C)[C@@H]1O [Example 34, (2S,3S,4R)-6-amino-3,4-dihydro-2-dimethoxymethyl-3-hydroxy-2-methyl-4-[N-(2-isopropylphenyl)-N-(1H-imidazol-2-ylmethyl)amino]-2H-1-benzopyran]	no significant changes	
COc1ccccc1N(Cc1ncc[nH]1)[C@H]1c2cc([N+](=O)[O-])ccc2O[C@@](C)(C(OC)OC)[C@@H]1O [Example 18, (2R,3R,4S)-3,4-dihydro-2-dimethoxymethyl-3-hydroxy-2-methyl-6-nitro-4-[N-(2-methoxyphenyl)-N-(1H-imidazol-2-ylmethyl)amino]-2H-1-benzopyran]	no significant changes	
COC(OC)[C@@]1(C)Oc2ccc([N+](=O)[O-])cc2[C@@H](N(Cc2ncc[nH]2)c2cccc(Cl)c2)[C@@H]1O [Example 20, (2S,3S,4R)-3,4-dihydro-2-dimethoxymethyl-3-hydroxy-2-methyl-6-nitro-4-[N-(3-chlorophenyl)-N-(1H-imidazol-2-ylmethyl)amino]-2H-1-benzopyran]	no significant changes	
COC(OC)[C@]1(C)Oc2ccc([N+](=O)[O-])cc2[C@H](N(Cc2ncc[nH]2)c2ccccc2C(C)C)[C@H]1O [Example 17, (2R,3R,4S)-3,4-dihydro-2-dimethoxymethyl-3-hydroxy-2-methyl-6-nitro-4-[N-(2-isopropylphenyl)-N-(1H-imidazol-2-ylmethyl)amino]-2H-1-benzopyran]	no significant changes	
COC(OC)[C@@]1(C)Oc2ccc(N)cc2[C@@H](N(Cc2ncc[nH]2)c2ccc(Br)cc2)[C@@H]1O [Example 36, (2S,3S,4R)-6-amino-3,4-dihydro-2-dimethoxymethyl-3-hydroxy-2-methyl-4-[N-(4-bromophenyl)-N-(1H-imidazol-2-ylmethyl)amino]-2H-1-benzopyran]	no significant changes	
COC(OC)[C@@]1(C)Oc2ccc([N+](=O)[O-])cc2[C@@H](N(Cc2ncc[nH]2)c2ccc(F)cc2)[C@@H]1O [Example 15, (2S,3S,4R)-3,4-dihydro-2-dimethoxymethyl-3-hydroxy-2-methyl-6-nitro-4-[N-(4-fluorophenyl)-N-(1H-imidazol-2-ylmethyl)amino]-2H-1-benzopyran]	no significant changes	
COc1ccccc1N(Cc1ncc[nH]1)[C@@H]1c2cc(N)ccc2O[C@](C)(C(OC)OC)[C@H]1O [Example 31, (2S,3S,4R)-6-amino-3,4-dihydro-2-dimethoxymethyl-3-hydroxy-2-methyl-4-[N-(2-methoxyphenyl)-N-(1H-imidazol-2-ylmethyl)amino]-2H-1-benzopyran]	no significant changes	
COC(OC)[C@@]1(C)Oc2ccc(N)cc2[C@@H](N(Cc2ncc[nH]2)c2ccc(F)cc2)[C@@H]1O [Example 37, (2S,3S,4R)-6-amino-3,4-dihydro-2-dimethoxymethyl-3-hydroxy-2-methyl-4-[N-(4-fluorophenyl)-N-(1H-imidazol-2-ylmethyl)amino]-2H-1-benzopyran]	no significant changes	
COC(OC)[C@@]1(C)Oc2ccc(N)cc2[C@@H](N(Cc2ncc[nH]2)c2ccc(C)cc2C)[C@@H]1O [Example 33, (2S,3S,4R)-6-amino-3,4-dihydro-2-dimethoxymethyl-3-hydroxy-2-methyl-4-[N-(2,4-dimethylphenyl)-N-(1H-imidazol-2-ylmethyl)amino]-2H-1-benzopyran]	no significant changes	
COc1ccc(N(Cc2ncc[nH]2)[C@@H]2c3cc(N)ccc3O[C@](C)(C(OC)OC)[C@H]2O)cc1 [Example 32, (2S,3S,4R)-6-amino-3,4-dihydro-2-dimethoxymethyl-3-hydroxy-2-methyl-4-[N-(4-methoxyphenyl)-N-(1H-imidazol-2-ylmethyl)amino]-2H-1-benzopyran]	no significant changes	
COC(OC)[C@]1(C)Oc2ccc([N+](=O)[O-])cc2[C@H](N(Cc2ncc[nH]2)c2ccc(OC(F)(F)F)cc2)[C@H]1O [Example 21, (2R,3R,4S)-3,4-dihydro-2-dimethoxymethyl-3-hydroxy-2-methyl-6-nitro-4-[N-(4-trifluoromethoxyphenyl)-N-(1H-imidazol-2-ylmethyl)amino]-2H-1-benzopyran]	no significant changes	
COC(OC)[C@@]1(C)Oc2ccc(N)cc2[C@@H](N(Cc2ncc[nH]2)c2cccc(C)c2C)[C@@H]1O [Example 30, (2S,3S,4R)-6-amino-3,4-dihydro-2-dimethoxymethyl-3-hydroxy-2-methyl-4-[N-(2,3-dimethylphenyl)-N-(1H-imidazol-2-ylmethyl)amino]-2H-1-benzopyran]	no significant changes	
COC(OC)[C@@]1(C)Oc2ccc(N)cc2[C@@H](N(Cc2ncc[nH]2)c2ccc(OC(F)(F)F)cc2)[C@@H]1O [Example 35, (2S,3S,4R)-6-amino-3,4-dihydro-2-dimethoxymethyl-3-hydroxy-2-methyl-4-[N-(4-trifluoromethoxyphenyl)-N-(1H-imidazol-2-ylmethyl)amino]-2H-1-benzopyran]	no significant changes	
COc1ccccc1N(Cc1ncc[nH]1)[C@@H]1c2cc([N+](=O)[O-])ccc2O[C@](C)(C(OC)OC)[C@H]1O [Example 16, (2S,3S,4R)-3,4-dihydro-2-dimethoxymethyl-3-hydroxy-2-methyl-6-nitro-4-[N-(2-methoxyphenyl)-N-(1H-imidazol-2-ylmethyl)amino]-2H-1-benzopyran]	no significant changes	
